Data taken from article PMC10661964 (Current Drug Metabolism, 2023).
Like-named read-outs stand apart in the source and are kept apart here. Marks after values point to notes of the source that are not given here.

Columns and labels:
[1] = Quantification of nifurtimox and metabolites in rat plasma after a single high dose (200 mg/kg); format: in vivo, Wistar rats; details: Wistar, rat, plasma, po, 200 mg/kg
Procedure: Blood cells and plasma were then separated by centrifugation, and the plasma was stored at ≤-15°C until required. For analysis, plasma samples were thawed at room temperature and homogenized by vortex mixing. Plasma samples were pooled separately for male and female rats by combining 25 µL from each of the 4 animals for each timepoint. […] To each pooled plasma (100 µL), calibration, or control sample, 300 µL of an internal standard solution containing [^2H8]-nifurtimox (500 ng/mL) and [^2H3]-M-6 (2500 ng/mL) in acetonitrile + 0.5% formic acid in water (v/v) was added and mixed thoroughly. All samples were then centrifuged (20,000 g, 5 min) to precipitate the protein. The supernatant was analyzed using a 1290 Infinity LC system equipped with a diode array detector and an Orbitrap Q-Exactive Plus HRMS (Thermo Fisher Scientific, Bremen, Germany) with a heated electrospray ionization source. […] The mobile phase gradient was: 0 min, 0% B; 2.5 min, 0% B; 3 min, 20% B; 8 min, 45% B; 9 min, 90% B; 10.1 min, 90% B; 12 min, 0% B; 13 min, 0% B. The following HRMS parameters were used: mass range, 120-200 Da (0-2.5 min) and 230-600 Da (2.5-13 min) in full scan mode; resolution, 280,000; ion source voltage, 3500 V; capillary temperature, 300°C; source temperature, 60°C.
The calibration was based on the relative peak area as a function of concentration obtained by linear regression. […] Thus, all concentrations in μg/mL were back-calculated to nmol/mL. The PK parameters for each analyte were calculated using ToxKin software, as described above.

[2] = Quantification of nifurtimox and metabolites in human plasma (LC-HRMS), plasma PK; format: in vivo; details: fed; for AUC(tlast-∞) (extrapolated proportion): pooled plasma of 6 patients, single oral 120 mg nifurtimox; for AUC, % of total quantified exposure: sum of AUC of nifurtimox and M-1 to M-6 = 100%, single oral 120 mg
Procedure: Plasma samples from timepoints 0, 0.25, 0.5, 0.75, 1, 1.5, 2, 2.5, 3, 4, 6, 8, 12, 15, and 24 h from 6 patients were analyzed. Blood samples were collected into lithium heparinized tubes. Blood cells and plasma were then separated by centrifugation, and the plasma was stored frozen until needed. For the analysis, plasma samples were thawed at room temperature and homogenized by vortex mixing. Equal volumes of plasma from the six patients for each timepoint were combined to a pooled volume of 200 µL. To precipitate protein, a 3-fold volume of acetonitrile/0.5% formic acid (v/v in water) was added to each pooled sample which was thoroughly mixed and then centrifuged at 20,000 g. […] For all analytes, the analytical precision ranged from 0.1% to 8.8%, and the accuracy was 95% to 108%.

[3] = Plasma PK of total radioactivity, [14C]-nifurtimox and metabolites after oral dosing (HPLC-LSC); format: in vivo; details: male Wistar rats; for %AUC(0-8) (relative to total radioactivity AUC(0-8)): oral 2.5 mg/kg, M-2+M-3, M-4, M-5 are estimates based on AUC(0-tn); for half-life / Tmax: rat; for half-life: plasma, interval up to 8 h, read-out: t½ (converted)
Procedure: (§1) Animals were housed in suitable metabolism cages. […] Blood cells and plasma were separated by centrifugation. Plasma was stored at ≤-15°C prior to analysis. […] All biological samples were weighed immediately. […] The remaining carcass was also wet-weighed.
Aliquots of individual plasma samples were pooled separately for each timepoint by equal volume. For protein precipitation, pooled plasma was treated with a three-fold volume of acetonitrile. Samples were homogenized and precipitated by centrifugation (20,000 g, 5 min). Samples were concentrated and analyzed using high-performance liquid chromatography (HPLC) with off-line radioactivity detection by LSC (HPLC-LSC).

[4] = Mass balance and metabolite profiling in excreta after oral [14C]-nifurtimox in intact rats; details: intact male Wistar rats, 2.5 mg/kg oral, up to 120 h; 2.5 mg/kg
Procedure: After an adaption period, the animals were prepared for the study. Bile duct cannulation was performed on selected animals the day before their use in experiments.
In a mass balance study (n = 5) and a PK study (n = 2 per timepoint), 2.5 mg/kg b.w. […] For i.v. administration, 2.5 mg/kg b.w. […] In an additional stability study, male Wistar rats (n = 3 per timepoint) were administered 2.5 mg/kg b.w. […] The total radioactivity concentration in the dosage form was confirmed by liquid scintillation counting (LSC).
Animals were housed in suitable metabolism cages. Blood was collected from separate rats at 0.25, 0.5, 1, 1.5, 2, 3, 5, and 8 h post-dose and stored in lithium heparinized tubes. Blood cells and plasma were separated by centrifugation. Plasma was stored at ≤-15°C prior to analysis. […] At the end of the study, the cages were rinsed with water, and samples were collected. All biological samples were weighed immediately. Feces samples were homogenized with water to obtain a uniform radioactivity distribution. All samples were stored deep-frozen at ≤-15/-70°C before further processing. During the necropsy, selected organs and tissues were collected and wet-weighed. The remaining carcass was also wet-weighed. The carcass and all tissues were homogenized and stored at room temperature prior to processing for analysis. In the stability study, blood and urine were collected at 0.25 and 0.5 h post-dose. Plasma and urine were immediately frozen in liquid nitrogen and stored at -80°C to prevent degradation. The total radioactivity in samples and tissues was determined by LSC after appropriate sample preparation.
Aliquots of individual urine or bile samples were pooled separately for each time interval by equal volume and analyzed using HPLC-LSC. Aliquots of individual feces samples were pooled separately for each time interval, ensuring that each aliquot contained the same amount of radioactivity. The pooled samples were extracted twice with a mixture of acetonitrile/water (80:20 v/v, 2 x 0.5 mL). The resulting suspensions were centrifuged (20,000 g, 5 min), and the supernatants were then combined for each time interval, concentrated, and subjected to HPLC-LSC.
The amount of total radioactivity in urine, feces, bile, and tissues was determined by multiplying the volume or weight of the samples by the respective total radioactivity concentration. The amount of radioactivity recovered in the excreta (AE), cage wash, and tissues was compared with the administered radioactive dose to establish the radioactive balance. Cumulative excretion was calculated as the sum of the excretion for each collection interval. Arithmetic means and coefficients of variation (CV) were calculated for these percentages. During metabolite profiling, the concentration or amount of each analyte for each sample and timepoint or interval was calculated by multiplying the total radioactivity concentration or amount excreted of each sample with the percent area of each analyte obtained after HPLC-LSC separation.

[5] = Stability study: metabolite profiles in snap-frozen plasma and urine at early timepoints after oral [14C]-nifurtimox; format: in vivo, male Wistar rats; details: oral 2.5 mg/kg, snap-frozen
Procedure: as §1
The combined supernatant was analyzed directly using HPLC-LSC.

[6] = Quantification of nifurtimox and metabolites in human urine (LC-HRMS); format: in vivo; details: single oral 120 mg nifurtimox; for AE,urine(0–24h), fasted patients: mean of 6 fasted patients with Chagas disease; for AE,urine(0–24h), fed patients: mean of 6 fed patients with Chagas disease
Procedure: Urine samples were collected from fasted and fed patients pre-dose (0 h) and at four post-dose intervals (0-4, 4-8, 8-12, and 12-24 h) and stored frozen until required. For analysis, urine samples were thawed at room temperature and homogenized by vortex mixing. […] Equal volumes (75 µL) of an internal standard solution of [^2H8]-nifurtimox dissolved in water (10 µg/mL) were added to each urine, calibration, or control sample and mixed thoroughly. Samples from 6 patients were then analyzed using liquid chromatography-high-resolution mass spectrometry (LC-HRMS) with a 1290 Infinity LC system equipped with a diode array detector and an Orbitrap Fusion™ Lumos™ Tribrid™ HRMS (Thermo Fisher Scientific, Bremen, Germany) with a heated electrospray ionization source. For quantification, the LC conditions were as described above for analysis of rat plasma, and the HRMS parameters were: mass range, 120-600 Da in full scan mode and all ion fragmentation in positive ionization mode; resolution, 240,000; ion source voltage, 3500 V; capillary temperature, 300°C; source temperature, 60°C.
The system was calibrated using the relative peak area as a function of concentration, which was obtained by linear regression. Quantification was performed on a mass basis (μg/mL), with the final calculation for the percentage of dose excreted in urine made on a molar basis to account for the substantial differences (up to ~2.5-fold) in the molecular masses of the compounds of interest. The analytical precision for all analytes was in the range of 1.1% to 4.4%, with an accuracy of 94% to 107%. All concentrations in μg/mL were back-calculated to nmol/mL, and these concentrations were then used to calculate a total molar amount based on the urine volume collected during each interval.

[7] = female, read-out: AUC(0–24), female animals
[8] = female, read-out: AUC, female animals
[9] = female, read-out: Cmax, female animals
[10] = female, read-out: tmax, female animals
[11] = female, read-out: t½, female animals (converted)
[12] = male, read-out: AUC(0–24), male animals
[13] = male, read-out: AUC, male animals
[14] = male, read-out: Cmax, male animals
[15] = male, read-out: tmax, male animals
[16] = male, read-out: t½, male animals (converted)
[17] = single oral 2.5 mg/kg [14C]-nifurtimox, pooled plasma
[18] = single oral 2.5 mg/kg [14C]-nifurtimox

AUC(0-t) [1, 7] [µM·h] | AUC [1, 8] [µM·h] | Cmax [1, 9] [nM] | Tmax [1, 10] [h] | half-life [1, 11] [h] | AUC(0-t) [1, 12] [µM·h] | AUC [1, 13] [µM·h] | Cmax [1, 14] [nM] | Tmax [1, 15] [h] | half-life [1, 16] [h] | AUC(tlast-∞) (extrapolated proportion) [2] [%] | AUC, % of total quantified exposure [2] | AUC [3, 17] [µg-eq*h/L] | AUC(0-tn) [3, 17] [µg-eq*h/L] | Cmax [3, 17] [µg-eq/L] | tn (time of last quantifiable concentration) [3, 17] [h] | half-life [3, 18] [h] | Tmax [3, 17] [h] | Structure (SMILES) | AE,urine(0–24h), fasted patients [6] | AE,urine(0–24h), fed patients [6] | also measured
36.7 | 44.2 | 2050 | 8 | 4.6 | 28.2 | 46.6 | 1390 | 24 | 4.2 | 7.6 | 1.8% | 767 | 715 | 138 | 8 | 1.36 | 3 | CC1CS(=O)(=O)CCN1/N=C/C(=O)CCC#N (stereo not drawn) [M-1] | 3.2 % of dose | 2.0 % of dose | %AUC(0-8) (relative to total radioactivity AUC(0-8)) [3]: 16.1%; AUC(0-8) [3, 17]: 715 µg-eq*h/L; component excreted in feces, oral dosing [4]: 1.5 % of the administered dose; share of sample radioactivity in plasma ([5]; 0.25 h post-dose): 1.4 % of sample radioactivity; share of sample radioactivity in plasma ([5]; 0.5 h post-dose): 2.3 % of sample radioactivity
3.54 | 3.7 | 547 | 1 | 5.8 | 3.64 | 10.1 | 255 | 1 | 39.6 | 49.2 | 1.2^a % | – | – | – | – | – | – | CC1CS(=O)(=O)CCN1/N=C/C(=O)CCC(=O)O (stereo not drawn) [M-3] | 0.06 % of dose | 0.15 % of dose | component excreted in feces, oral dosing [4]: 3.6 % of the administered dose
1.42 | 2.43 | 186 | 3 | 25.3 | 4.64 | 8.02 | 328 | 3 | 8.2 | 11.7 | 0.5% | 177 | 102 | 32.1 | 5 | 3.76 | 1.5 | CC(=O)NC(CSc1ccc(=O)n(N2CCS(=O)(=O)CC2C)c1)C(=O)O (stereo not drawn) [M-5] | 3.4 % of dose | 6.6 % of dose | %AUC(0-8) (relative to total radioactivity AUC(0-8)) ([3]; 2.5 mg/kg): 2.30^c %
3.22 | 3.63 | 447 | 2 | 8.5 | 3.31 | 13.4 | 220 | 2 | 63.3 | 7.8 | 1.4% | – | – | – | – | – | – | CC1CS(=O)(=O)CCN1/N=C/C(CCC(=O)O)=N\O (stereo not drawn) [M-2] | 1.0 % of dose | 2.4 % of dose | –
